Experimental data taken from BindingDB's records for doi:10.1021/jm020056z (University of Newcastle, 2002).

Assays:
[1] = target: T1, Cyclin-A2 [171-432]/Cyclin-dependent kinase 2 (Homo sapiens, UniProt P24941); assay: Kinase Inhibition Assay
T1 construct: 171-432

[2] = target: Cyclin-dependent kinase 1/G2/mitotic-specific cyclin-B (Marthasterias glacialis, UniProt P15206+Q9DGD3); assay: Kinase Inhibition Assay
Chain of Cyclin-dependent kinase 1/G2/mitotic-specific cyclin-B (Q9DGD3 whole entry): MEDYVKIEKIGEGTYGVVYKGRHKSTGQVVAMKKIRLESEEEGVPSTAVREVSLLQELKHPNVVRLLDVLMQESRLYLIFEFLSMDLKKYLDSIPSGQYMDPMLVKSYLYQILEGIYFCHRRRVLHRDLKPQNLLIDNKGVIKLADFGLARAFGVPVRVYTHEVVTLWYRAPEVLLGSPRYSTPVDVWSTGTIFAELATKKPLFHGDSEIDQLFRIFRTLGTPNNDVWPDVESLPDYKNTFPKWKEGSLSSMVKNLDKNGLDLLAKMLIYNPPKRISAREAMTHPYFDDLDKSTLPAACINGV
Chain of Cyclin-dependent kinase 1/G2/mitotic-specific cyclin-B (P15206 whole entry): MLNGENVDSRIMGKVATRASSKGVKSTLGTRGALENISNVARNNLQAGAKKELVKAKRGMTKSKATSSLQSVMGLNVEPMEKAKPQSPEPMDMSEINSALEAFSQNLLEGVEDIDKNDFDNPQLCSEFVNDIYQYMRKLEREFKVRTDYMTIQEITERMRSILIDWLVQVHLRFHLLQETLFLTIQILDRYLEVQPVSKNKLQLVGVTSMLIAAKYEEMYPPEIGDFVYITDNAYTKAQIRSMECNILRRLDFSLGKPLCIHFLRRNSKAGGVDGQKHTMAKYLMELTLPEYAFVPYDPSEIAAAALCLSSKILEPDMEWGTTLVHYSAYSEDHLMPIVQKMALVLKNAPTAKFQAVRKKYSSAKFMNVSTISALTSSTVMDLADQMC

Compound	IC50 [1] [µM]	IC50 [2] [µM]
Nc1nc(OCC2CC=CCC2)c2[nH]cnc2n1 (stereo not drawn)	16	
CCOC(C)(COc1nc(N)nc2[nH]cnc12)OCC	33	36
